Results on eight molecules are retold here after patent publication US11014947B2, “Lipophenol compounds and uses thereof” (INSTITUT NATIONAL DE LA SANTE ET DE LA RECHERCHE MEDICALE …, priority 2014, dated 2021).

The subject of series [1] is RPE primary cells. Briefly: Primary RPE cultures, pre-treatment 24 h, atRAL 25 μM 4 h, cell viability assay. The format is cell-based. Conditions: atRAL 25 μM 4 h (FIG. 8). The procedure:
b. Pre-treatment 24 h, atRAL 25 μM 4 h; cell viability assay

Series [2] deals with ARPE-19 cell lines. To be noted: for % Survival: untreated cells = 100; for cell survival: text summary of Table 1, AtR 25 μM.
Description: The biological assay is based on the measure of cell survival after treatment with the lipophenol prior incubation (pre-incubation process) with the carbonyl stressor AtR. The toxic AtR concentration (25 μM) was determined to reduce cell survival by 60 to 70%. Results are expressed as % of cell survival in treated (lipophenol/all-trans-retinal) vs untreated cells (taken as 100%).
ARPE-19 cells were settled in 96-well plates (3×10^4 cells/well) and cultured 24 h to reach confluence before drug treatment. Cell cultures received a serum-free medium containing drugs at different concentrations (10-40 μM) for one hour and trans-retinal (25 μM) was added for 4 more hours before rinsing with medium. The viability of cells in triplicate samples was determined 16-20 h after with a MTT colorimetric assay. After 2 h incubation with 0.5 mg/ml MU, insoluble purple formazan produced was dissolved in DMSO. The absorbance at 570 nm and 655 nm of individual wells was measured by a microplate reader (BioRad 550).
For series [3], the system named is RPE primary cells. Briefly: Primary RPE cultures, pre-treatment 24 h, H2O2 450 μM 2 h, cell viability assay. The format is cell-based. Conditions: H2O2 450 μM 2 h (FIG. 7). As to the method:
a. Pre-treatment 24 h, H2O2 450 μM 2 h; cell viability assay

Series [4] deals with ARPE-19 cell lines. Briefly: ARPE-19 cell survival, co-treatment with atRAL 25 μM. Format: cell-based. As to the method: Co-treatment were performed with lipophenols onto ARPE-19 (FIG. 4). Incubation for 4 h with atRAL decreased cell viability to 35%. The protection of ARPE-19 by phloroglucinol (PG) was dose-dependent but weak (less than 10%). In contrast, most of the PG derivatives were more protective, in particular the presence of two or three DHA linked to PG provided a strong protection (up to 73% survival), as well as the mono-alkylation (methyl and isopropyl) were sufficient to protect 60% of cells. PG-OiP-DHA was confirmed to be among the most efficient (74%).

Series [5] has as its system RPE primary cells. Briefly: Primary RPE cultures, co-incubation 4 h with atRAL 25 μM, cell viability assay. Conditions: co-incubation 4 h with atRAL 25 μM (FIG. 9). Format: cell-based. The procedure:
c. Co-incubation 4 h with atRAL 25 μM; cell viability assay
To compare the anti-carbonyl efficacies of phloroglucinol (22% gain of survival) and PG-OiP-DHA (69%) in a condition to probe their scavenging properties in primary RPE cells (FIG. 9).

Series [6] deals with neural retina cell cultures. Briefly: Cytoprotection in neural retina cell cultures exposed to atRal (MTT). Format: cell-based. To be noted: 13b 10 to 100 μM, atRal 50-75-100 μM added 1 h after, 4 h co-incubation. The procedure: The effect of compound 13b on cell viability was examined after co-incubation with atRal. Cell cultures were incubated with 13b (10 to 100 μM) and atRal (50-75-100 μM) was added 1 h after for a 4 h co-incubation. Cells were then cultured in serum-free medium for 16-20 h and their viability was determined with a MTT assay.

The test system of the next series is complexes CI and CII. Briefly: Mitochondrial respiration in ARPE-19 cell line (oxygraph). The format is cell-based. An excerpt:
Oxidative stress originates from physiological reactions taking place practically inside each cell of an organism. The production of reactive oxygen species (ROS) accompanies, for example, oxidative phosphorylation-derived ATP-based energy metabolism which takes place in the mitochondria of a cell. Under physiological conditions, ROS are neutralized by effective enzymatic and non-enzymatic defense mechanisms, contributing to the maintenance of a proper balance. However, an excess of ROS, resulting from their overproduction in pathophysiological conditions, will disturb the equilibrium and lead eventually to deleterious consequences for the cell. Maeda et al. (JBC 284(22), 2009) have reported that atRal impairs mitochondrial oxidative phosphorylation. Therefore, mitochondrial respiration was measured in ARPE-19 cell line using oxygraph after exposure to 25 μM atRal and/or 40 μM 13b (FIG. 3).

Another series has as its system ARPE-19. Briefly: atRAL-induced cell death, Annexin V-FITC / propidium iodide flow cytometry. Conditions: 4 h. Format: cell-based. The procedure:
Further investigations were made to define the atRAL-induced cell death (apoptotic versus necrotic) and validate the protective effect of PG-OiP-DHA (FIG. 6). Cells were incubated for 4 h with atRAL 25 μM, PG-OiP-DHA (compound 13b) 40 μM, or both. Treated ARPE-19 were labeled with Annexin V-FITC (A) and propidium iodide (PI) to separate by flow cytometry healthy cells (no labeling), early apoptosis (A+ and PI−) and necrotic cells (A+ and PI+). In CTL or PG-OiP-DHA-treated cells only 6 to 10% died. After 4 h atRAL, cell death reached 46%, mainly at necrotic stage (41%).
In general terms: In flow cytometry, cells or beads pass a laser one at a time.

Series [7] concerns mitochondrial respiratory chain (MRC) complex. Briefly: Mitochondrial respiratory chain complex enzymatic activities and protein expression. The format is cell-based. To be noted: atRAL treatment with PG-OiP-DHA (FIG. 5, FIG. 14). The text has this:
In a cellular context, PG-OiP-DHA (compound 13b) has been shown able to partially restore mitochondrial oxidative respiration impaired by the atRAL (example 10). Because this repair might be produced by targeting the whole oxidative chain or each individual respiratory complex, this potency was further investigated by measuring the intrinsic activity of each mitochondrial respiratory chain (MRC) complex (enzymology) and their level of protein expression (FIG. 5). […] This was supported by the loss of MRC protein expression.
Several experiments were made to validate the efficacy of PG-OiP-DHA in the protection of the mitochondrial activity (FIG. 14).

The mark [8] stands for this setting: compound 10 μM 1 h, then AtR 25 μM 4 h, MTT after 16-20 h.
[9] abbreviates: compound 40 μM 1 h, then AtR 25 μM 4 h, MTT after 16-20 h.
Setting [10] is: co-incubation atRAL 25 μM + PG-OiP-DHA 40 μM.

SMILES strings stand for the structures. Like-named read-outs stand apart in the source and are kept apart here.

For the molecule `Oc1cc(O)cc(O)c1` [Phloroglucinol, phloroglucinol, reference compound], in the series with RPE primary cells [1], the “gain of survival (anti-carbonyl efficacy)” value is listed as 18%. The “increase of RPE cell survival” value in the series on ARPE-19 cell lines [2] (40 μM, AtR 25 μM) is 10%. The figures for the “% Survival” value with ARPE-19 cell lines [2] (setting [8]) and in the series with ARPE-19 cell lines [2] (setting [9]) were 35.5 ± 3.3% and 41.6 ± 9.2%, respectively. The “gain of survival (anti-oxidant efficacy)” value in the series on RPE primary cells [3] was found to be 10%. In addition, the “protection of ARPE-19” value in the series with ARPE-19 cell lines [4] (co-treatment with atRAL 25 μM, doses 5-80 μM) is reported as “less than 10%”. Also, in the series with RPE primary cells [5], the “gain of survival (anti-carbonyl efficacy, scavenging)” value turned out to be 22%.

As for `CC/C=C\C/C=C\C/C=C\C/C=C\C/C=C\C/C=C\CCC(=O)Oc1ccc(/C=C/c2cc(O)cc(O)c2)cc1` [Compound 20, (4,7,10,13,16,19 Z)-4-((E)-3,5-dihydroxyphenylstyryl)phenyl docosa-4,7,10,13,16,19-hexaenoate], in the series on ARPE-19 cell lines [4] (co-treatment with atRAL 25 μM 4 h (FIG. 4)), the “protective effect” value is “very potent”.

On to `CC/C=C\C/C=C\C/C=C\C/C=C\C/C=C\C/C=C\CCC(=O)Oc1cc(O)cc(OC)c1` [Compound 13a, (4,7,10,13,16,19 Z)-3-hydroxy-5-methoxyphenyl docosa-4,7,10,13,16, 19-hexaenoate], for which the “% Survival” value came out at 32.6 ± 3.7% in the series with ARPE-19 cell lines [2] (setting [8]) and 44.9 ± 1.9% in the series with ARPE-19 cell lines [2] (setting [9]). The cell survival entry in the series on ARPE-19 cell lines [2] is recorded as “as active as 8”.

Consider `CC/C=C\C/C=C\C/C=C\C/C=C\C/C=C\C/C=C\CCC(=O)Oc1cc(O)cc(OC(C)C)c1` [Compound 13b, (4,7,10,13,16,19 Z)-3-hydroxy-5-isopropoxyphenyl docosa-4,7,10,13,16,19-hexaenoate], for which the “gain of survival (anti-carbonyl efficacy)” value in the series with RPE primary cells [1] turned out to be 42%. Besides, the “% Survival” value was 43.2 ± 7.5% with ARPE-19 cell lines [2] (setting [8]) and 66.8 ± 8.6% in the series on ARPE-19 cell lines [2] (setting [9]). Moreover, the “reversal of atRal cytotoxicity” value in series [6] is recorded as “robustly reversed”. In the series with complexes CI and CII (40 μM 13b with 25 μM atRal), the “reversal of atRal inhibition of complexes CI and CII” value was “partially reverse this inhibition”. Besides, the “inhibition of the activity of each complex by the compound alone” value in the series with complexes CI and CII (40 μM 13b, no atRal) is “no significant inhibition”. Also, in the series on ARPE-19 (setting [10]), the necrotic cells is reported as 16%. The total cell death with ARPE-19 (setting [10]) turned out to be 18%. Besides, the “gain of survival (anti-oxidant efficacy)” value in the series on RPE primary cells [3] is recorded as 20%. Also, the “preservation of complex II and IV enzymatic activities affected by atRAL” value in series [7] is recorded as “significantly preserved”. Also, the survival in the series on ARPE-19 cell lines [4] (co-treatment with atRAL 25 μM 4 h, doses 5-80 μM (FIG. 4)) is 74%. Further, the “gain of survival (anti-carbonyl efficacy, scavenging)” value in the series with RPE primary cells [5] amounted to 69%.

Take `CC(C)Oc1cc(O)cc(O)c1` [Compound 9b, 5-isopropoxybenzene-1,3-diol, reference compound]: the “% Survival” value was determined as 30.6 ± 1.2% in the series on ARPE-19 cell lines [2] (setting [8]) and 32.7 ± 1.8% with ARPE-19 cell lines [2] (setting [9]).

For `CC/C=C\C/C=C\C/C=C\C/C=C\C/C=C\C/C=C\CCC(=O)O` [DHA, docosahexaenoic acid, reference compound], the results for the “% Survival” value in the series on ARPE-19 cell lines [2] (setting [8]) and with ARPE-19 cell lines [2] (setting [9]) were 23.5 ± 2.7% and 7.3 ± 5.0%, respectively.

One may read the cell viability as a read-out of living cells in per cent, often relative to untreated cells. With `CC1=C(/C=C/C(C)=C/C=C/C(C)=C/C=O)C(C)(C)CCC1` [AtR, all-trans-retinal, reference compound], the “% Survival” value with ARPE-19 cell lines [2] (AtR 25 μM alone) is 29.1 ± 5.4%. The “inhibition of the activity of complexes CI and CII” value with complexes CI and CII (25 μM atRal alone) is listed as “strongly inhibits”. Besides, in the series on ARPE-19 (atRAL 25 μM alone), the cell death came to 46% and the necrotic stage cells was 41%. Also, the cell viability in the series on ARPE-19 cell lines [4] (atRAL 25 μM alone, 4 h) was 35%.

As to `CC/C=C\C/C=C\C/C=C\C/C=C\C/C=C\C/C=C\CCC(=O)Oc1cc(OC(=O)CC/C=C\C/C=C\C/C=C\C/C=C\C/C=C\C/C=C\CC)cc(OC(=O)CC/C=C\C/C=C\C/C=C\C/C=C\C/C=C\C/C=C\CC)c1` [Compound 8, (4,4′,4″,7,7′,7″,10,10′,10″,13,13′,13″,16,16′,16″,19,19′,19″Z)-benzene-1,3,5-triyl tridocosa-4,7,10,13,16,19-hexaenoate], the figures for the “% Survival” value in the series with ARPE-19 cell lines [2] (setting [8]) and in the series on ARPE-19 cell lines [2] (setting [9]) were 33.3 ± 4.1% and 47.7 ± 3.2%, respectively. The cell survival with ARPE-19 cell lines [2] came to 50%.
